# Assay results: patent US8933122B2, “Use of cationic surfactants as sporicidal agents” (Laboratorios Miret, S.A., priority 2008, dated 2015)
# Tested on: endospores from Clostridium sporogenes ATCC 7955
# Assay: Sporicidal activity, quantitative suspension test EN 13704:2002 (Example 5)
# Assay type: cell-based
# Conditions: 60 minutes contact, 20° C.; for Test of LAE sporicidal activity (Na), surviving spores count: water as interfering substance, N 1.3 × 10^6 cfu/mL
# Protocol: The determination of the sporicidal activity of LAE has been carried out according to the European standard EN 13704:2002 Chemical disinfectant—Quantitative suspension test for the evaluation of sporicidal activity of chemical disinfectants used in food, industrial, domestic and institutional areas—Test method and requirements”.
# A test suspension containing endospores from Clostridium sporogenes ATCC 7955 was prepared from a culture grown on a nutrient agar, to which additional sporulation enhancement ingredients were added. Plates were harvested with sterile water and endospores were purified by repeated centrifugations and resuspensions in water.
# Neutralizer. The neutralizer mixture consisted of 30 g/L polysorbate 80 in water. The solution was intended to neutralize any chemicals so that these would not affect subsequent growth of the bacteria.
# The sporicidal activity of a given product is defined by its capacity to reduce at least by 10^3 the amount of Clostridium sporogenes bacterial spores in suspension, in the conditions established in the method.
# The product was in contact with a suspension of bacterial spores during an established period of time of 60 minutes. An interfering substance can be added to the suspension, in this case water. Next, the effect of the product is neutralized by adding a neutralizer previously chosen, preceding to the surviving spores count.
# • 1. Spore suspension obtained from a spored-form culture of Clostridium sporogenes. • 2. Count of the spore suspension of Clostridium sporogenes. • 3. The possible toxic effect of the neutralizer on the spores in the absence of the product is valued. • 4. […] Results: Results are expressed as the reduction of viability of the spore suspension in regards to: […]
# Sporicidal activity is calculated following the criteria of the Standard EN 13704: 2002 R=N×0.1/Na N is cfu/mL of the spore suspension. […] The calculated reduction (R) of a solution of: • 13 μg/mL of LAE is R<10^3 cfu/mL • 26 μg/mL of LAE is R<10^3 cfu/mL • 51 μg/mL of LAE is R>10^3 cfu/mL • 64 μg/mL of LAE is R>10^3 cfu/mL
smiles,measurement,setting,value
"CCCCCCCCCCCC(=O)N[C@@H](CCCN=C(N)N)C(=O)OCC.Cl [LAE, ethyl ester of the lauramide of the arginine monohydrochloride]",concentration displaying sporicidal activity (reduction equal or above 10^3),EN 13704:2002,≥ 51 μg/mL
same,"Test of LAE sporicidal activity (Na), surviving spores count",LAE 13 μg/mL,3.3 × 10^3 cfu/mL
same,"Test of LAE sporicidal activity (Na), surviving spores count",LAE 26 μg/mL,2.3 × 10^3 cfu/mL
